Measurements reported in patent US6706740B2, “Fungicidal heterocyclic aromatic amides and their compositions, methods of use and preparation” (Dow AgroSciences LLC, priority 1999, dated 2004).
Where two headings read alike, the source gives them in different places.

Tests used:
[1] = tested on: Magnaporthe grisea (Pyricularia oryzae—PYRIOR); assay: microbe, parasite or virus in culture; type: cell-based; settings: Pyricularia oryzae, read-out: PYRIOR in vitro Growth Inhibition
[2] = tested on: Rhizoctonia solani (RHIZSO); assay: microbe, parasite or virus in culture; type: cell-based; settings: Rhizoctonia solani, read-out: RHIZSO in vitro Growth Inhibition
[3] = tested on: Mycosphaerella graminicola (Septoria tritici—SEPTTR); assay: In vitro fungal growth inhibition, Mycosphaerella graminicola (SEPTTR); type: cell-based; settings: Zymoseptoria tritici, read-out: SEPTTR in vitro Growth Inhibition
[4] = tested on: Stagonospora nodorum (Leptosphaeria nodorum—LEPTNO); assay: In vitro fungal growth inhibition, Stagonospora nodorum (LEPTNO); type: cell-based; settings: Leptosphaeria, read-out: LEPTNO in vitro Growth Inhibition
Ustilago maydis (USTIMA) = assay: microbe, parasite or virus in culture; type: cell-based; settings: Mycosarcoma maydis, read-out: USTIMA in vitro Growth Inhibition
[5] = tested on: Phytophthora infestans (PHYTIN); assay: microbe, parasite or virus in culture; type: cell-based; settings: Phytophthora infestans, read-out: PHYTIN in vitro Growth Inhibition
[6] = tested on: Phytophthora infestans—PHYTIN; assay: whole plant or invertebrate; type: in vivo; settings: Phytophthora, in Solanum lycopersicum, 24 h, read-out: PHYTIN in vivo 1 Day Protectant
[7] = tested on: Puccinia recondita—PUCCRT; assay: Brown Rust of Wheat, in vivo whole plant, 24 Hour Protectant; settings: Puccinia, read-out: PUCCRT in vivo 1 Day Protectant
Erysiphe graminis—ERYSGT = assay: Powdery Mildew of Wheat, in vivo whole plant, 24 Hour Protectant; settings: Erysiphe, read-out: ERYSGT in vivo 1 Day Protectant
Septoria tritici—SEPTTR = assay: Leaf Blotch of Wheat, in vivo whole plant, 24 Hour Protectant; settings: Zymoseptoria tritici, 24 h, read-out: SEPTTR in vivo 1 Day Protectant
[8] = tested on: Leptosphaeria nodorum—LEPTNO; assay: Glume Blotch of Wheat, in vivo whole plant, 24 Hour Protectant; settings: for pest or weed control at 100 ppm: Leptosphaeria, read-out: LEPTNO in vivo 1 Day Protectant
[9] = 100 ppm spray, wheat, 24 hour protectant, % control of fungal infection vs untreated plants
[10] = wheat plants sprayed at 100 ppm, inoculated after 24 hours, control of fungal infection vs untreated plants
[11] = 100 ppm spray, 24 hour protectant, wheat, control of fungal infection vs untreated plants

Row | SMILES | inhibition at 25 ppm [1] [%] | inhibition at 25 ppm [2] [%] | inhibition at 25 ppm ([3]; 25 ppm in growth medium) [%] | inhibition at 25 ppm ([4]; 25 ppm in growth medium) [%] | inhibition at 25 ppm (Ustilago maydis (USTIMA)) [%] | inhibition at 25 ppm [5] [%] | pest or weed control at 100 ppm [6] [%] | melting point | inhibition at 25 ppm ([3]; 25 ppm in the growth medium) [%] | inhibition at 25 ppm ([4]; 25 ppm in the growth medium) [%] | pest or weed control at 100 ppm [7, 10] [%] | pest or weed control at 100 ppm (Erysiphe graminis—ERYSGT; [10]) [%] | pest or weed control at 100 ppm (Septoria tritici—SEPTTR; [10]) [%] | pest or weed control at 100 ppm [8, 10] [%] | further results
1 | COCCC(=O)Oc1c(OC)ccnc1C(=O)Nc1ccc(C(=O)c2cccc(C(F)(F)F)c2)cc1 [Compound 706] | < 80 | < 80 | < 80 | > 80 | < 80 | < 80 | < 25 | 158 to 160 °C |  |  |  |  |  |  | pest or weed control at 100 ppm [7, 9]: < 25%; pest or weed control at 100 ppm (Erysiphe graminis—ERYSGT; [9]): < 25%; pest or weed control at 100 ppm (Septoria tritici—SEPTTR; [9]): 25 to 74%; pest or weed control at 100 ppm [8, 9]: 25 to 74%
2 | CSc1ccnc(C(=O)Nc2ccc(Oc3cccc(C(F)(F)F)c3)cc2)c1O [Compound 479] | < 80 | < 80 |  |  | < 80 | < 80 | < 25 | 129 to 132 °C | < 80 | < 80 | < 25 | < 25 | 25 to 74 | 25 to 74 | 
3 | CC1(C)CC(NC(=O)c2nsnc2O)CC(C)(C)C1 [Compound 552] | > 80 | > 80 |  |  | < 80 | > 80 | 25 to 74 | 96 to 102 °C | > 80 | > 80 | < 25 | 25 to 74 | < 25 | < 25 | 
4 | COc1ccnc(C(=O)N[C@H]2CC[C@H](Oc3ccc(C(F)(F)F)cc3)CC2)c1O [Compound 270] | > 80 | > 80 | > 80 | > 80 | > 80 | < 80 | 25 to 74 | 168 to 172 °C (dec.) |  |  |  |  |  |  | pest or weed control at 100 ppm [7, 11]: 25 to 74%; pest or weed control at 100 ppm (Erysiphe graminis—ERYSGT; [11]): 25 to 74%; pest or weed control at 100 ppm (Septoria tritici—SEPTTR; [11]): 25 to 74%; LEPTNO in vivo 1 Day Protectant [8, 11]: + +
5 | CSc1nnc(C(=O)NC2CC(C)(C)CC(C)(C)C2)c(O)n1 [Compound 545] | < 80 | < 80 |  |  | < 80 | > 80 | 25 to 74 | 265 to 268 °C | < 80 | < 80 | 25 to 74 | < 25 | 25 to 74 | 25 to 74 | 
6 | O=C(Nc1ccc(Oc2ccccc2)cc1)c1cccnc1O [Compound 522] | < 80 | < 80 |  |  | < 80 | < 80 | < 25 | 223 to 224 °C | < 80 | < 80 | < 25 | < 25 | < 25 |  | LEPTNO in vivo 1 Day Protectant [8, 10]: + +
7 | CC(NC(=O)c1ncccc1O)c1ccccc1 (stereo not drawn) [Compound 229] | > 80 | < 80 | > 80 | < 80 | < 80 | < 80 | < 25 | 89 to 91 °C |  |  |  |  |  |  | pest or weed control at 100 ppm [7, 11]: < 25%; pest or weed control at 100 ppm (Erysiphe graminis—ERYSGT; [11]): < 25%; pest or weed control at 100 ppm (Septoria tritici—SEPTTR; [11]): < 25%; pest or weed control at 100 ppm [8, 11]: < 25%
